# In PubChem BioAssay (NCI):
#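 Interpolation was linear, between the two tested concentrations surrounding the appropriate level; five concentrations were tested over 48 hours in 96-well plates. Here, GI50 denotes the concentration required for 50% inhibition of growth. TGI marks complete inhibition of growth.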
# What was measured:
# Assay in all cases: NCI-60 cell line screen, 48 h
# [1] = system: SK-MEL-5 melanoma
# [2] = system: TK-10 renal
# [3] = system: OVCAR-4 ovarian
# [4] = system: RXF 393 renal
# [5] = system: SK-OV-3 ovarian
# [6] = system: SK-MEL-28 melanoma
# [7] = system: SN12C renal
# [8] = system: HOP-62 NSCLC
# [9] = system: SNB-19 CNS
# [10] = system: IGROV1 ovarian
# [11] = system: HCT-15 colon
# [12] = system: NCI-H23 lung
# [13] = system: HT29 colon
# [14] = system: COLO 205 colon
# [15] = system: HCC-2998 colon
# [16] = system: BT-549 breast
# [17] = system: HOP-92 NSCLC
# [18] = system: OVCAR-8 ovarian
# [19] = system: M14 melanoma
# [20] = system: CCRF-CEM leukemia
# [21] = system: T-47D breast
# [22] = system: MALME-3M melanoma
# [23] = system: A549 NSCLC
# [24] = system: MDA-MB-231 breast
# [25] = system: LOX IMVI melanoma
# [26] = system: NCI-H460 lung
# [27] = system: SR leukemia
# [28] = system: NCI/ADR-RES ovarian
# [29] = system: HS 578T breast
# [30] = system: UACC-257 melanoma
# [31] = system: ACHN renal
# [32] = system: K-562 leukemia
# [33] = system: UO-31 renal
# [34] = system: RPMI-8226 leukemia
# [35] = system: NCI-H226 lung
# [36] = system: MCF7 breast
# [37] = system: SNB-75 CNS
# [38] = system: HL-60(TB) leukemia
# [39] = system: PC-3 prostate
# [40] = system: HCT-116 colon
# [41] = system: U251 CNS
# [42] = system: KM12 colon
# [43] = system: DU-145 prostate
# [44] = system: NCI-H522 lung
# [45] = system: 786-0 renal
# [46] = system: SF-539 CNS
# [47] = system: MDA-MB-435
# [48] = system: OVCAR-5 ovarian
# [49] = system: OVCAR-3 ovarian
# [50] = system: SF-295 CNS
# [51] = system: MOLT-4 leukemia
# [52] = system: CAKI-1 renal
# [53] = system: A498 renal
# [54] = system: SW-620 colon
# [55] = system: SK-MEL-2 melanoma
# [56] = system: SF-268 CNS
# [57] = system: UACC-62 melanoma
smiles,measurement,setting,value
CC(NNC(=S)N1CCCCCC1)c1ccc2ccccc2n1 (centres undefined),GI50,[1],1.95 µM
same,TGI,[1],14.8 µM
same,GI50,[2],1.21 µM
same,TGI,[2],21 µM
same,GI50,[3],0.0701 µM
same,TGI,[3],13.8 µM
same,GI50,[4],4.7 µM
same,TGI,[4],21.2 µM
same,GI50,[5],6.24 µM
same,TGI,[5],26.9 µM
same,GI50,[6],5.18 µM
same,TGI,[6],40.4 µM
same,GI50,[7],1.84 µM
same,TGI,[7],> 57.3 µM
same,GI50,[8],3.93 µM
same,TGI,[8],> 100 µM
same,GI50,[9],4.16 µM
same,TGI,[9],> 100 µM
same,GI50,[10],1.85 µM
same,TGI,[10],51.3 µM
same,GI50,[11],1.06 µM
same,TGI,[11],51.6 µM
same,GI50,[12],11.8 µM
same,TGI,[12],> 87.1 µM
same,GI50,[13],2.54 µM
same,TGI,[13],31.1 µM
same,GI50,[14],0.284 µM
same,TGI,[14],19 µM
same,GI50,[15],3.35 µM
same,TGI,[15],22.6 µM
same,GI50,[16],7.45 µM
same,TGI,[16],58.9 µM
same,GI50,[17],0.769 µM
same,TGI,[17],34.3 µM
same,GI50,[18],1.06 µM
same,TGI,[18],> 58.7 µM
same,GI50,[19],1.85 µM
same,TGI,[19],11.7 µM
same,GI50,[20],0.765 µM
same,TGI,[20],> 100 µM
same,GI50,[21],1.91 µM
same,TGI,[21],28.7 µM
same,GI50,[22],3.15 µM
same,TGI,[22],37.8 µM
same,GI50,[23],1.13 µM
same,TGI,[23],27 µM
same,GI50,[24],2.03 µM
same,TGI,[24],20.5 µM
same,GI50,[25],2.56 µM
same,TGI,[25],15.5 µM
same,GI50,[26],1.05 µM
same,TGI,[26],> 78.9 µM
same,GI50,[27],0.759 µM
same,TGI,[27],> 48.9 µM
same,GI50,[28],2.29 µM
same,TGI,[28],> 100 µM
same,GI50,[29],14.5 µM
same,TGI,[29],> 100 µM
same,GI50,[30],1.74 µM
same,TGI,[30],17 µM
same,GI50,[31],0.66 µM
same,TGI,[31],14.6 µM
same,GI50,[32],2.14 µM
same,TGI,[32],> 100 µM
same,GI50,[33],0.478 µM
same,TGI,[33],14.1 µM
same,GI50,[34],5.36 µM
same,TGI,[34],> 100 µM
same,GI50,[35],2.74 µM
same,TGI,[35],23.2 µM
same,GI50,[36],0.338 µM
same,TGI,[36],15.2 µM
same,GI50,[37],12.5 µM
same,TGI,[37],27.5 µM
same,GI50,[38],0.363 µM
same,TGI,[38],12.1 µM
same,GI50,[39],2.07 µM
same,TGI,[39],> 63 µM
same,GI50,[40],0.688 µM
same,TGI,[40],17.8 µM
same,GI50,[41],0.92 µM
same,TGI,[41],20.4 µM
same,GI50,[42],2.57 µM
same,TGI,[42],41.4 µM
same,GI50,[43],2.22 µM
same,TGI,[43],18.2 µM
same,GI50,[44],2.69 µM
same,TGI,[44],21.6 µM
same,GI50,[45],3.38 µM
same,TGI,[45],16.8 µM
same,GI50,[46],1.68 µM
same,TGI,[46],12.6 µM
same,GI50,[47],2.25 µM
same,TGI,[47],21.4 µM
same,GI50,[48],9.5 µM
same,TGI,[48],38.5 µM
same,GI50,[49],0.41 µM
same,TGI,[49],18.8 µM
same,GI50,[50],0.843 µM
same,TGI,[50],13.2 µM
same,GI50,[51],2.18 µM
same,TGI,[51],> 55.5 µM
same,GI50,[52],0.456 µM
same,TGI,[52],10.8 µM
same,GI50,[53],4.61 µM
same,TGI,[53],22.1 µM
same,GI50,[54],3.23 µM
same,TGI,[54],33.2 µM
same,GI50,[55],13.8 µM
same,TGI,[55],41.5 µM
same,GI50,[56],1.72 µM
same,TGI,[56],43.7 µM
same,GI50,[57],1.69 µM
same,TGI,[57],11.5 µM
